In patent US6472418B1, “Non-peptide NK1 receptors antagonists” (Warner-Lambert Company, priority 1998, dated 2002):

These compounds were tested against T1, Human NK1 Receptor (Homo sapiens, UniProt P25103) (assay: In Vitro Human NK1 Receptor Binding Assay ([125I]Bolton-Hunter substance P displacement, IM9 cells)). Details: Human lymphoma IM9 cells, [125I]Bolton-Hunter substance P; Table 3, array-synthesis products; read-out: IC50 (nM) hNK1.
T1 construct: endogenous in cells; host or cells: Human lymphoma IM9 cells (whole cells)
In short: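 Test compounds competed with 0.05-0.1 nM [125I]Bolton-Hunter substance P for binding to intact IM9 cells over 50 min at 21° C, pH 7.4 buffer with MnCl2 and peptidase inhibitors. […] [Sar9, Met(O2)11] substance P gave non-specific binding. Bound counts were measured after filtration and fitted iteratively.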

T1 sequence (P25103 whole entry): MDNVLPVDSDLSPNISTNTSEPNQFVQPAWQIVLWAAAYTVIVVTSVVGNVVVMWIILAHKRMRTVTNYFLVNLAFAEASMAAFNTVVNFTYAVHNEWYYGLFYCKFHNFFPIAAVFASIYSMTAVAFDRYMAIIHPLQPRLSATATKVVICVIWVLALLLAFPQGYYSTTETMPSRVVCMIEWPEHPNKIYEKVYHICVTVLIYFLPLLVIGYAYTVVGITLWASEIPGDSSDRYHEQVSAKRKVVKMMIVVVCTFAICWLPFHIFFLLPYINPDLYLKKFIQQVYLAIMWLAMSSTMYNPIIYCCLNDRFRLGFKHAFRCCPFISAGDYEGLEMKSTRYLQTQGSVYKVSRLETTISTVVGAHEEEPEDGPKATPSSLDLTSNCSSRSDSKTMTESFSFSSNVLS

IC50 [nM]	SMILES
15	CC(NC(=O)C(Cc1c[nH]c2ccccc12)NCc1cc2ccccc2o1)c1ccc(Cl)s1 (centres unmarked) [Example 243, 2-[(Benzofuran-2-ylmethyl)-amino]-N-[1-(5-chloro-thiophen-2-yl)-ethyl]-3-(1H-indol-3-yl)-propionamide]
31	O=C(NCc1cccc(Br)c1)C(Cc1c[nH]c2ccccc12)NCc1cc2ccccc2o1 (centres unmarked) [Example 219]
3	CC(NC(=O)C(Cc1c[nH]c2ccccc12)NCc1cc2ccccc2o1)c1ccc(F)cc1 (centres unmarked) [Example 235, 2-[(Benzofuran-2-ylmethyl)-amino]-N-[1-(4-fluoro-phenyl)-ethyl]-3-(1H-indol-3-yl)-propionamide]
400	O=C(NCCOc1ccccc1)C(Cc1c[nH]c2ccccc12)NCc1cc2ccccc2o1 (centres unmarked) [Example 305, 2-[(Benzofuran-2-ylmethyl)-amino]-3-(1H-indol-3-yl)-N-(2-phenoxy-ethyl)-propionamide]
633	O=C(NCC1CC2CCC1C2)C(Cc1c[nH]c2ccccc12)NCc1cc2ccccc2o1 (centres unmarked) [Example 266, 2-[(Benzofuran-2-ylmethyl)-amino]-N-bicyclo[2.2.1]-hept-2-ylmethyl-3-(1H-indol-3-yl)-propionamide]
3610	CC(Cc1c[nH]c2ccccc12)NC(=O)C(Cc1c[nH]c2ccccc12)NCc1cc2ccccc2o1 (centres unmarked) [Example 297, 2-[(Benzofuran-2-ylmethyl)-amino]-3-(1H-indol-3-yl)-N-[2-(1H-indol-3-yl)-1-methyl-ethyl]-propionamide]
2180	O=C(NCC1CCNC1)C(Cc1c[nH]c2ccccc12)NCc1cc2ccccc2o1 (centres unmarked) [Example 202, 2-[(Benzofuran-2-ylmethyl)-amino]-3-(1H-indol-3-yl)-N-pyrrolidin-3-ylmethyl-propionamide]
56	O=C(NCCc1cccs1)C(Cc1c[nH]c2ccccc12)NCc1cc2ccccc2o1 (centres unmarked) [Example 247, 2-[(Benzofuran-2-ylmethyl)-amino]-3-(1H-indol-3-yl)-N-(2-thiophen-2-yl-ethyl)-propionamide]
4010	CN(C)c1ccc(CNC(=O)C(Cc2c[nH]c3ccccc23)NCc2cc3ccccc3o2)cc1 (centres unmarked) [Example 214, 2-[(Benzofuran-2-ylmethyl)-amino]-N-(4-dimethylamino-benzyl)-3-(1H-indol-3-yl)-propionamide]
658	O=C(NCCn1cccc1)C(Cc1c[nH]c2ccccc12)NCc1cc2ccccc2o1 (centres unmarked) [Example 212, 2-[(Benzofuran-2-ylmethyl)-amino]-3-(1H-indol-3-yl)-N-(2-pyrrol-1-yl-ethyl)-propionamide]
170	Cc1ccccc1CNC(=O)C(Cc1c[nH]c2ccccc12)NCc1cc2ccccc2o1 (centres unmarked) [Example 242, 2-[(Benzofuran-2-ylmethyl)-amino]-3-(1H-indol-3-yl)-N-(2-methyl-benzyl)-propionamide]
89	O=C(NCc1ccccc1F)C(Cc1c[nH]c2ccccc12)NCc1cc2ccccc2o1 (centres unmarked) [Example 238, 2-[(Benzofuran-2-ylmethyl)-amino]-N-(2-fluoro-benzyl)-3-(1H-indol-3-yl)-propionamide]
1340	COc1cccc(CCNC(=O)C(Cc2c[nH]c3ccccc23)NCc2cc3ccccc3o2)c1 (centres unmarked) [Example 291, 2-[(Benzofuran-2-ylmethyl)-amino]-3-(1H-indol-3-yl)-N-[2-(3-methoxy-phenyl)-ethyl]-propionamide]

Same assay, conditions: Table 4; [125I]Bolton-Hunter substance P displacement, human IM9 cells; read-out: IC50 (nM) hNK1

IC50 [nM]	SMILES
3380	CC(NC(=O)C(C)(Cc1c[nH]c2ccccc12)NCc1ccc(Oc2ccccc2)cc1)c1ccccc1 (centres unmarked) [compound 347, 3-(1H-Indol-3-yl)-2-methyl-2-(4-phenoxy-benzylamino)-N-(1-phenyl-ethyl)-propionamide]
1050	CC(NC(=O)C(C)(Cc1c[nH]c2ccccc12)NCc1c[nH]c2ccccc12)c1ccccc1 (centres unmarked) [compound 355, 3-(1H-Indol-3-yl)-2-[(1H-indol-3-ylmethyl)-amino]-2-methyl-N-(1-phenyl-ethyl)-propionamide]

Same assay, conditions: Table 5; [125I]Bolton-Hunter substance P displacement, human IM9 cells; read-out: IC50 (nM) hNK1

IC50 [nM]	SMILES
> 10000	Cc1cc(CNC(Cc2c[nH]c3ccccc23)C(=O)NC(C)c2ccccc2)c(C)n1-c1ccccc1 (centres unmarked) [compound 392]
> 10000	CC(NC(=O)C(Cc1c[nH]c2ccccc12)NCC1CSc2c([nH]c3ccccc23)C1=O)c1ccccc1 (centres unmarked) [compound 372]
252	CSc1ccc(CNC(Cc2c[nH]c3ccccc23)C(=O)NC(C)c2ccccc2)cc1 (centres unmarked) [compound 383]
2390	CC(NC(=O)C(Cc1c[nH]c2ccccc12)NCc1ccsc1)c1ccccc1 (centres unmarked) [compound 404]
5280	CC(NC(=O)C(Cc1c[nH]c2ccccc12)NCC1CC=C(CCCC(C)(C)O)CC1)c1ccccc1 (centres unmarked) [compound 365]
> 10000	CC(NC(=O)C(Cc1c[nH]c2ccccc12)NCc1ccccn1)c1ccccc1 (centres unmarked) [compound 395]
201	CC(NC(=O)C(Cc1c[nH]c2ccccc12)NCc1ccccc1Sc1ccc(Cl)cc1)c1ccccc1 (centres unmarked) [compound 387]

Same assay, conditions: human NK1 receptor, IM9 cells, [125I]Bolton-Hunter substance P; read-out: IC50 (nM) hNK1

SMILES	IC50 [nM]
CC(Cc1c[nH]c2ccccc12)(NCc1cc2ccccc2o1)C(=O)NCC(=O)c1nc[nH]c1N (centres unmarked) [compound 95, N-[2-(5-Amino-1H-imidazol-4-yl)-2-oxo-ethyl]-2-[(benzofuran-2-ylmethyl)-amino]-3-(1H-indol-3-yl)-2-methyl-propionamide]	> 10000
CC(Cc1c[nH]c2ccccc12)(NCc1cc2ccccc2o1)C(=O)NCc1ccc(Cl)cc1 (centres unmarked) [compound 64, 2-[(Benzofuran-2-ylmethyl)-amino]-N-(4-chloro-benzyl)-3-(1H-indol-3-yl)-2-methyl-propionamide]	76
CC(NC(=O)C(C)(Cc1c[nH]c2ccccc12)NCc1cc2ccccc2o1)c1cccc2ccccc12 (centres unmarked) [compound 31, 2-[(Benzofuran-2-ylmethyl)amino]-3-(1H-indol-3-yl)-2-methyl-N-(1-naphthalen-1-yl-ethyl)-propionamide]	> 10000
CC(Cc1c[nH]c2ccccc12)(NCc1cc2ccccc2o1)C(=O)NCc1ccc([N+](=O)[O-])cc1 (centres unmarked) [compound 119, 2-[(Benzofuran-2-ylmethyl)-amino]-3-(1H-indol-3-yl)-2-methyl-N-(4-nitro-benzyl)-propionamide]	89
CCC(NC(=O)C(C)(Cc1c[nH]c2ccccc12)NCc1cc2ccccc2o1)c1ccccc1 (centres unmarked) [compound 63, 2-[(Benzofuran-2-ylmethyl)-amino]-3-(1H-indol-3-yl)-2-methyl-N-(1-phenyl-propyl)-propionamide]	58
CC(Cc1c[nH]c2ccccc12)(NCc1cc2ccccc2o1)C(=O)NCc1ccccc1 (centres unmarked) [compound 28, 2-[(Benzofuran-2-ylmethyl)-amino]-N-benzyl-3-(1H-indol-3-yl)-2-methyl-propionamide]	44
CCC(NC(=O)C(C)(Cc1c[nH]c2ccccc12)NCc1cc2ccccc2o1)c1cccs1 (centres unmarked) [compound 114, 2-[(Benzofuran-2-ylmethyl)-amino]-3-(1H-indol-3-yl)-2-methyl-N-(1-thiophen-2-yl-propyl)-propionamide]	128
CC(Cc1c[nH]c2ccccc12)(NCc1cc2ccccc2o1)C(=O)NCCc1c[nH]cn1 (centres unmarked) [compound 97, 2-[(Benzofuran-2-ylmethyl)-amino]-N-[2-(1H-imidazol-4-yl)-ethyl]-3-(1H-indol-3-yl)-2-methyl-propionamide]	> 10000
CC(NC(=O)C(C)(Cc1c[nH]c2ccccc12)NCc1cc2ccccc2o1)c1cc(Cl)sc1Cl (centres unmarked) [compound 122, 2-[(Benzofuran-2-ylmethyl)-amino]-N-[1-(2,5-dichloro-thiophen-3-yl)-ethyl]-3-(1H-indol-3-yl)-2-methyl-propionamide]	442

The remaining lines, values ahead:

IC50 [nM]	SMILES
3550	COc1cc(C(O)CNC(=O)C(C)(Cc2c[nH]c3ccccc23)NCc2cc3ccccc3o2)ccc1O (centres unmarked) [compound 153, 2-[(Benzofuran-2-ylmethyl)-amino]-N-[2-hydroxy-2-(4-hydroxy-3-methoxy-phenyl)-ethyl]-3-(1H-indol-3-yl)-2-methyl-propionamide]
444	CC(Cc1c[nH]c2ccccc12)(NCc1cc2ccccc2o1)C(=O)NCc1ccc(Cl)cc1F (centres unmarked) [compound 177, 2-[(Benzofuran-2-ylmethyl)-amino]-N-(4-chloro-2-fluoro-benzyl)-3-(1H-indol-3-yl)-2-methyl-propionamide]
163	CC(Cc1c[nH]c2ccccc12)(NCc1cc2ccccc2o1)C(=O)NC1CCc2ccccc21 (centres unmarked) [compound 130, 2-[(Benzofuran-2-ylmethyl)-amino]-N-indan-1-yl-3-(1H-indol-3-yl)-2-methyl-propionamide]
> 10000	CC(Cc1c[nH]c2ccccc12)(NCc1cc2ccccc2o1)C(=O)NCCc1ccc(O)c(O)c1 (centres unmarked) [compound 161, 2-[(Benzofuran-2-ylmethyl)-amino]-N-[2-(3,4-dihydroxy-phenyl)-ethyl]-3-(1H-indol-3-yl)-2-methyl-propionamide]
> 10000	CC(Cc1c[nH]c2ccccc12)(NCc1cc2ccccc2o1)C(=O)NCCN1CCCC1 (centres unmarked) [compound 155, 2-[(Benzofuran-2-ylmethyl)-amino]-3-(1H-indol-3-yl)-2-methyl-N-(2-pyrrolidin-1-yl-ethyl)-propionamide]
2280	COc1ccc(CNC(=O)C(C)(Cc2c[nH]c3ccccc23)NCc2cc3ccccc3o2)c(N)c1 (centres unmarked) [compound 188, N-(2-Amino-4-methoxy-benzyl)-2-[(benzofuran-2-ylmethyl)-amino]-3-(1H-indol-3-yl)-2-methyl-propionamide]
153	CC(Cc1c[nH]c2ccccc12)(NCc1cc2ccccc2o1)C(=O)NCCc1cccs1 (centres unmarked) [compound 172, 2-[(Benzofuran-2-ylmethyl)-amino]-3-(1H-indol-3-yl)-2-methyl-N-(2-thiophen-2-yl-ethyl)-propionamide]
